Columns and labels:
[1] = system: MRSP (Methicillin-Resistant Staphylococcus pseudintermedius); assay: MIC against selected strains of MRSP; assay type: cell-based; set-up: key to MIC MRSP 88493 / MIC MRSP 72035 / MIC MRSP 81926: MIC in μM; key to MIC MRSP 71994 / MIC MRSP 79882 / MIC MRSP 80729 / MIC MRSP 86002: MIC in μM (first well with no visible growth); key to MIC MRSP 72192 / MIC MRSP 76923 / MR 71994 / Mr 88493 / MR 72035 / MR 72192 / MR 76923 / MR 79882 / MR 80279 / MR 81926 / MR 86002 / MR 87665: MIC in μM (visual, first well with no growth); MIC MRSP 87655: unit not given beside the values; conditions: for MIC MRSP 71994: strain 71994, Table 4; for MIC MRSP 72035: strain 72035, Table 4; for MIC MRSP 72192: strain 72192, Table 4; for MIC MRSP 76923: strain 76923, Table 4; for MIC MRSP 79882: strain 79882, Table 4; for MIC MRSP 80729: strain 80729, Table 4; for MIC MRSP 81926: strain 81926, Table 4; for MIC MRSP 86002: strain 86002, Table 4; for MIC MRSP 87655: strain 87655, Table 4; for MIC MRSP 88493: strain 88493, Table 4
Experimental: (§1) Peptides according to SEQ ID NOs as listed in Table 1 were prepared by a commercial manufacturer (CS Bio, Menlo Park, Calif.) using solid phase synthesis. Antimicrobial activity was assessed by determining the Minimal Inhibitory Concentration (MIC) against S. aureus and E. coli. Briefly, Microbroth MICs were performed using CLSI methodology (VET01-S2). For S. aureus and E. coli ATCC strains, TSA with 5% lysed horse blood agar was used for overnight culturing at 37° C. ambient air. A 0.5 mM stock for each peptide was made with cell culture water, 0.01% acetic acid and serially diluted and spotted (10 μL) in a 96-well plate for in assay dose titration concentration of 50 μM to 0.05 μM. 0.5 McFarland Standard of each strain was diluted 1:250 in Mueller-Hinton Broth (MHB). 90 μL of culture suspension was then added upon drug in the 96-well plate for overnight incubation for 18-20 hours. The MIC was determined visually at the first well of no visible growth at the corresponding concentration.
(§2) Antimicrobial activity of the peptides listed in Table 2 against different strains of MSSP (Methicillin-Susceptible Staphylococcus pseudintermedius) and MRSP (Methicillin-Resistant Staphylococcus pseudintermedius) was further assessed. The results are in Tables 3 and 4, respectively.

cRBC = assay type: cell-based, canine
Experimental: SEQ ID NO: 1 was selected for further research. Toxicity of SEQ ID NO: 1 to eukaryotic blood cells was compared to that of tachyplesin (SEQ ID NO: 13). A standard, well referenced red blood cell hemolysis assay was employed against multiple species to test the lysis potential of the peptides. Red blood cells (RBCs) were prepared and isolated by several centrifuge and wash steps to remove the plasma fraction. A dose titration (50 μM to 0.05 μM) of test peptides and control peptide melittin were spotted from 50 mM stocks in a 384 well plate. Prepared RBCs were incubated with peptide for one hour at 37° C. Percent hemolysis was measured by optical density at 405 nm and utilizing 1% TritonX100 as hundred percent effect (HPE) and phosphate buffer alone as zero percent effect (ZPE).

[2] = system: Canine-derived epithelial keratinocyte (CPEK) cells; assay type: cell-based
Experimental: Safety of the peptides listed in table 2 was determining by measuring cell viability. Canine-derived epithelial keratinocyte (CPEK) cells were propagated to determine cell viability in the presence of peptides. Cells were grown from a frozen stock in CnT-09-5 (with supplements) pre-warmed media in a T75 flask and incubated overnight at 37° C., 5% CO2. Cells were washed with phosphate buffer and replenished with pre-warmed CnT-05-9 media and repeated for several days until cells reached a density of 6.6×10^4 cells/mL. Cells were then transferred to a 384 well plate, allowed to settle and dosed with peptides and melittin control peptide (50 μM to 0.05 μM) and incubated overnight at 37° C., 5% CO2. 0.1% TritonX100 as (HPE) and phosphate buffer alone as (ZPE) were added to the plates to calculate percent effect once the assay was terminated with 10 μL CELLTITER-GLO® assay reagents for a luminescent readout.

[3] = system: MSSP (Methicillin-Susceptible Staphylococcus pseudintermedius); assay: MIC against selected strains of MSSP; assay type: cell-based; set-up: key to MIC MSSP 84658 / MIC MSSP 86000 / MIC MSSP 71990 / MIC MSSP 72036 / MIC MSSP 78032: MIC in μM; key to MIC MSSP 86001 / MIC MSSP 72191 / MIC MSSP 76986 / MIC MSSP 77378: MIC in μM (first well with no visible growth); MIC MSSP 49051 / MIC MSSP 81923 / MIC MSSP 84250 / Effect on MSSP 86000 / Effect on MSSP 72036 / Effect on MSSP 78032: unit not given beside the values; conditions: for MIC MSSP 49051: strain 49051, Table 3; for MIC MSSP 71990: strain 71990, Table 3; for MIC MSSP 72036: strain 72036, Table 3; for MIC MSSP 72191: strain 72191, Table 3; for MIC MSSP 76986: strain 76986, Table 3; for MIC MSSP 77378: strain 77378, Table 3; for MIC MSSP 78032: strain 78032, Table 3; for MIC MSSP 81923: strain 81923, Table 3; for MIC MSSP 84250: strain 84250, Table 3; for MIC MSSP 84658: strain 84658, Table 3; for MIC MSSP 86000: strain 86000, Table 3; for MIC MSSP 86001: strain 86001, Table 3
Experimental: as §1, §2

Substance	MIC MRSP 71994 [1]	MIC MRSP 72035 [1]	MIC MRSP 72192 [1]	MIC MRSP 76923 [1]	MIC MRSP 79882 [1]	MIC MRSP 80729 [1]	MIC MRSP 81926 [1]	MIC MRSP 86002 [1]	MIC MRSP 87655 [1]	MIC MRSP 88493 [1]	cRBC (50 μM) (cRBC)	CPEK (50 μM) [2]	MIC MSSP 49051 [3]	MIC MSSP 71990 [3]	MIC MSSP 72036 [3]	MIC MSSP 72191 [3]	MIC MSSP 76986 [3]	MIC MSSP 77378 [3]	MIC MSSP 78032 [3]	MIC MSSP 81923 [3]	further results
6 (KWCFRVCRRGICYRRCRD; Artificial Antimicrobial peptide) [compound 6]	3.1	3.1	3.1	3.1	3.1	3.1	3.1	3.1	3.1	3.1	1.1	4.1	3.1	3.1	3.1	3.1	3.1	1.6	3.1	3.1	MIC MSSP 84250 [3]: 3.1; MIC MSSP 84658 [3]: 3.1; MIC MSSP 86000 [3]: 3.1; MIC MSSP 86001 [3]: 3.1
7 (KWCFRVCYRGVCYRRCRD; Artificial Antimicrobial peptide) [compound 7]	1.6	1.6	1.6	1.6	1.6	1.6	1.6	1.6	1.6	1.6	84.1	11.3	1.6	1.6	1.6	1.6	1.6	0.8	1.6	1.6	MIC MSSP 84250 [3]: 1.6; MIC MSSP 84658 [3]: 1.6; MIC MSSP 86000 [3]: 1.6; MIC MSSP 86001 [3]: 1.6
8 (KWCFRVCYRGACYRRCRD; Artificial Antimicrobial peptide) [compound 8]	1.6	1.6	1.6	1.6	1.6	1.6	1.6	1.6	1.6	1.6	30.2	24.6	1.6	1.6	1.6	1.6	1.6	0.8	1.6	3.1	MIC MSSP 84250 [3]: 1.6; MIC MSSP 84658 [3]: 1.6; MIC MSSP 86000 [3]: 1.6; MIC MSSP 86001 [3]: 1.6
9 (KWCFRVCYRGFCYRRCRD; Artificial Antimicrobial peptide) [compound 9]	1.6	1.6	1.6	1.6	0.8	1.6	1.6	1.6	1.6	1.6	101.3	52.3	1.6	1.6	0.8	1.6	0.8	0.4	0.8	1.6	MIC MSSP 84250 [3]: 1.6; MIC MSSP 84658 [3]: 1.6; MIC MSSP 86000 [3]: 0.8; MIC MSSP 86001 [3]: 0.8
10 (KWCFRVCYRGICYHRCRD; Artificial Antimicrobial peptide) [compound 10]	1.6	1.6	1.6	1.6	0.8	1.6	1.6	1.6	1.6	1.6	101.1	31.5	1.6	1.6	1.6	1.6	1.6	0.8	1.6	1.6	MIC MSSP 84250 [3]: 1.6; MIC MSSP 84658 [3]: 1.6; MIC MSSP 86000 [3]: 1.6; MIC MSSP 86001 [3]: 1.6

Reference: patent US11352396B2, “Antimicrobial peptides and methods of using same” (Zoetis Services LLC, priority 2017, dated 2022)
